The values that follow are results of earlier work, collected in patent US12605434B2, “Composition for preventing or treating autoimmune diseases” (STATENS SERUM INSTITUT, priority 2021, dated 2026).

The test system of this data set is Th17 polarization.

Regarding `CC1=C(/C=C/C(C)=C/C=C/C(C)=C/C(=O)O)C(C)(C)CCC1` [ATRA, all-trans retinoic acid], for the setting “Elias_2008, Kwok_2012”, the FoxP3 expression entry is “enhancing FoxP3 expression” and the Th17 polarization entry is listed as “inhibit the Th17 polarization”. The “RORγT in T cells” value (Mucinda_2007) is “reduction of RORγT”.
